Patent US10004711B2, “Methods and compositions comprising 10-hydroxy-2-decenoic acid” (DSM IP ASSETS B.V., priority 2014, dated 2018)

Legend:
[1] = Body weight of aged male rats fed QBA and/or DHA (Example 8); assay type: in vivo, rat; conditions: DHA 0.07% weight of diet
[2] = as above; assay type: in vivo, rat; conditions: DHA 0.07% weight of diet; remark: listed apart in the source
Protocol: Aged male rats were fed 10-Hydroxy-2-decenoic acid (QBA) for approximately […] from 12-months to 20-months of age and the weight of rats was recorded.

[3] = Weight after Barnes maze psychological stress (Example 9); assay type: in vivo, rat; conditions: for % Change (Weight after Barnes maze): DHA 0.07% weight of diet
Protocol: Aged male rats were fed 10-Hydroxy-2-decenoic acid (QBA) for approximately […] from 12-months to 20-months of age and the weight of rats was recorded (N=11-14 per group). During the last month of QBA feeding animals were subjected to the psychological stress of the Barnes maze.

[4] = system: 19-20 month-old male rats; assay: Elevated plus-maze, rats fed QBA alone or QBA+DHA; assay type: in vivo, rat; conditions: QBA 0, DHA 0.07% weight of diet
Protocol: Rats were fed QBA and subjected to an elevated plus-maze. The elevated plus-maze was elevated ˜85 cm above the floor and consisted of two open and two closed arms of the same size (50×10 cm). The closed arms were surrounded by walls 40 cm high, and the arms were constructed of black acrylic slabs that radiated from a central platform (10×10 cm) to form a plus sign. Each rat was placed in the central platform facing one of the open arms, and its behavior was recorded during a 5-min testing period with video capture software. More time spent in the open arms is an indication of reduced anxiety-like state. Rats were tested at 18 months old (N=11-13 per group).
The dose-response characteristics of 10-Hydroxy-2-decenoic acid's (QBA's) in combination with DHA for potential brain health benefits during aging were assessed for mood in 19-20 month-old male rats (N=11-14 per group). Rats were fed QBA alone or QBA+DHA and subjected to an elevated plus-maze.

[5] = system: RAW264.7 mouse macrophage cell line; assay: TNFα levels after LPS stimulation; assay type: cell-based; conditions: Dexamethasone, concentration not given; LPS 100 ng/mL; 24 h
Protocol: (§1) Cultures of the RAW264.7 mouse macrophage cell line were pre-treated with 10-Hydroxy-2-decenoic acid (QBA) for 1 hour prior to stimulation with lipopolysaccharide (LPS, 100 ng/mL). After 24 hours of incubation, interleukin […] (IL-1β) and tumor necrosis factor-α (TNFα) levels were determined by Luminex technology and cell numbers were measured using Alamar Blue. Results are given as a ratio of cytokine concentration/cell number.

[6] = system: RAW264.7 mouse macrophage cell line; assay: IL-1β levels after LPS stimulation; assay type: cell-based; conditions: Dexamethasone, concentration not given; LPS 100 ng/mL; 24 h
Protocol: as §1

CC/C=C\C/C=C\C/C=C\C/C=C\C/C=C\C/C=C\CCC(=O)O [DHA, all-cis-docosa-4,7,10,13,16,19-hexaenoic acid]
Avg Wt ([1]; study day 60): 614.6 g
Avg Wt ([1]; study day 130): 635.2 g
Avg Wt ([1]; study day 144): 632.5 g
Avg Wt ([2]; study day 0): 552.9 g
Avg Wt ([2]; study day 4): 568.8 g
Avg Wt ([2]; study day 11): 579.8 g
Avg Wt ([2]; study day 18): 592.4 g
Avg Wt ([2]; study day 25): 594.4 g
Avg Wt ([2]; study day 32): 600.5 g
Avg Wt ([2]; study day 39): 605.1 g
Avg Wt ([2]; study day 46): 607.2 g
Avg Wt ([2]; study day 53): 610.6 g
Avg Wt ([2]; study day 67): 616.2 g
Avg Wt ([2]; study day 74): 617.6 g
Avg Wt ([2]; study day 81): 619.7 g
Avg Wt ([2]; study day 88): 623.2 g
Avg Wt ([2]; study day 95): 624.8 g
Avg Wt ([2]; study day 102): 629.4 g
Avg Wt ([2]; study day 109): 632.9 g
Avg Wt ([2]; study day 116): 636.3 g
Avg Wt ([2]; study day 123): 631.2 g
Avg Wt ([2]; study day 137): 633.1 g
Avg Wt ([2]; study day 151): 634.6 g
% Change (Weight after Barnes maze) ([3]; behavior stress day 7): −0.76%
% Change (Weight after Barnes maze) ([3]; behavior stress day 14): −0.57%
% Change (Weight after Barnes maze) ([3]; behavior stress day 21): −0.88%
% Change (Weight after Barnes maze) ([3]; behavior stress day 28): −0.56%
% Change (Weight after Barnes maze) ([3]; behavior stress day 35): −0.23%
weight loss associated with the psychological stress ([3]; summary of Table 15): did not produce the same results
Time (s) in Open Arm [4]: 32.4 s

C[C@@H]1C[C@H]2[C@@H]3CCC4=CC(=O)C=C[C@]4(C)[C@@]3(F)[C@@H](O)C[C@]2(C)[C@@]1(O)C(=O)CO [Dexamethasone, reference compound]
TNFα (pg/mL)/Cell Numbers [5]: 0.153 (pg/mL)/Cell Numbers
IL-1β (pg/mL)/Cell Numbers [6]: 0.0013 (pg/mL)/Cell Numbers
